# Measurements as given in the supplement of paper PMC10307832.
# How the values were obtained:
# Test in all cases: relative viability (nuclei count vs DMSO), 5 days (fraction); higher = more cells survive
# [1] = compound: C1COCCN1C2=NC(=NC3=C2OC4=C3C=CC=N4)C5=CC(=CC=C5)NC(=O)C6=CN=C(C=C6)N + Cc1cc(Nc2cc(N3CCN(C)CC3)nc(Sc3ccc(NC(=O)C4CC4)cc3)n2)n[nH]1 [Tozasertib] (partner 0.1 µM)
# Summary of the method: (§1)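 Cells from lung cancer lines were seeded into 1536-well plates and, one day later, dosed by pin tool. Treatments were either a single drug or a fixed dose of an anchor drug with five library-drug doses (not always all listed) in √10 steps. After 5 days, nuclei were stained in a one-step fixation (final 0.05% Triton X-100, 1% formaldehyde, 1 ug/ml Hoechst) and counted on 4× images, and relative viability is the treated-to-vehicle nuclei ratio, as the median of duplicate plates.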
# [2] = compound: CN1CCC(CNc2ccc3ncc(-c4cccc(OC(F)(F)F)c4)n3n2)CC1 [SGI-1776] + COc1cccc2cc(-c3nc([C@H]4CC[C@H](C(=O)O)CC4)n4ncnc(N)c34)[nH]c12 [OSI-027] (partner 0.5 µM)
# Summary of the method: as §1
# [3] = compound: Nc1ccccc1NC(=O)c1ccc(CNC(=O)OCc2cccnc2)cc1 [Entinostat] + CS(=O)(=O)N1CCN(Cc2cc3nc(-c4cccc5[nH]ncc45)nc(N4CCOCC4)c3s2)CC1 [Pictilisib] (partner 1 µM)
# Summary of the method: as §1
# [4] = compound: Nc1ccccc1NC(=O)c1ccc(CNC(=O)OCc2cccnc2)cc1 [Entinostat] + O=C(CCCCCCC(=O)Nc1ccccc1)NO [Vorinostat] (partner 1 µM)
# Summary of the method: as §1
Cell Line,relative viability ([1]; first compound 0.02 µM),relative viability ([1]; first compound 0.06325 µM),relative viability ([1]; first compound 0.2 µM),relative viability ([1]; first compound 0.6325 µM),relative viability ([1]; first compound 2 µM),relative viability ([2]; first compound 0.08 µM),relative viability ([2]; first compound 0.8 µM),relative viability ([2]; first compound 2.53 µM),relative viability ([2]; first compound 8 µM),relative viability ([3]; first compound 0.02 µM),relative viability ([3]; first compound 0.06325 µM),relative viability ([3]; first compound 0.2 µM),relative viability ([3]; first compound 0.6325 µM),relative viability ([3]; first compound 2 µM),relative viability ([4]; first compound 0.02 µM),relative viability ([4]; first compound 0.06325 µM),relative viability ([4]; first compound 0.2 µM),relative viability ([4]; first compound 0.6325 µM),relative viability ([4]; first compound 2 µM)
LK-2,0.172,0.156,0.167,0.154,0.176,0.247,0.216,0.201,0.159,0.62,0.486,0.529,0.518,0.285,0.237,0.293,0.279,0.188,0.154
LOU-NH91,0.591,0.738,0.649,0.652,0.465,0.777,0.726,0.826,0.56,0.522,0.529,0.549,0.452,0.394,0.971,0.909,0.872,0.718,0.56
LU99A,0.277,0.276,0.231,0.21,0.173,0.294,0.286,0.303,0.262,0.289,0.326,0.334,0.271,0.231,0.521,0.499,0.503,0.388,0.326
LXF-289,0.177,0.181,0.156,0.145,0.119,0.794,0.843,0.764,0.707,0.78,0.81,0.657,0.393,0.191,0.784,0.784,0.731,0.526,0.381
NCI-H23,0.329,–,0.185,0.615,0.263,0.676,0.547,0.724,0.437,0.496,0.576,0.499,0.404,0.296,0.601,0.681,0.496,0.271,0.198
NCI-H322M,0.535,0.49,0.471,0.401,0.338,0.514,0.54,0.661,0.475,0.513,0.595,0.561,0.559,0.295,0.967,0.975,0.981,0.876,0.808
NCI-H358,–,0.117,0.0984,0.099,0.0866,0.747,0.856,0.663,0.304,0.332,0.327,0.369,0.278,0.187,0.67,0.618,0.947,0.211,0.117
NCI-H441,0.609,0.496,0.416,0.401,0.299,0.58,0.559,0.743,0.388,0.369,0.429,0.402,0.208,0.172,0.695,0.61,0.465,0.261,0.161
NCI-H460,0.465,0.509,0.209,0.392,0.0489,0.68,0.587,0.646,0.255,0.328,0.411,0.333,0.132,0.108,0.751,0.567,0.245,0.052,0.0296
